From US20240122214A1, “COMPOSITIONS, METHOD OF MAKING AND METHOD OF USE THEREOF” (EPC NATURAL PRODUCTS CO., LTD, priority 2014, published 2024)
Read-outs that look alike come from different tables or passages of the source.

What was measured:
[1] = depends on the tested concentration compared with sucrose; cited from earlier work
Caco-2 cell layers = assay: Caco-2 barrier integrity: TEER and xylitol passage (Example 2); format: cell-based, Human; conditions: 1 g/L xylitol reference
Protocol: Caco-2 cells were seeded on 0.4 μm trans-well inserts for monolayer formation and fast differentiation. […] Therefore, cell culture medium containing 13.5 g/L glucose and 1 g/L xylitol with or without the indicated concentrations of rubusoside plant extract or phloretin was placed as donor solution onto the apical compartment. The effect on barrier integrity was analyzed by measuring TEER after 0, 0.5, 1, 1.5, 2 and 3 hours (Panels A, C and E) and by including xylitol as a reference substance for the paracellular permeability of the cell layer (Panels B, D and F). Xylitol concentrations of the samples taken were measured by HPLC. Error bars are based on the standard error of the mean (n=2).
Caco-2 (165,000 cells/insert) cells were seeded on 0.4 μm trans-well inserts for monolayer formation and fast differentiation (enterocyte differentiation medium). […] Briefly, cell culture medium containing 13.5 g/L glucose and 1 g/L xylitol with or without the indicated concentrations of rubusoside plant extract or phloretin was placed as donor solution onto the apical compartment. Samples were collected from the basolateral compartment (HEPES buffer) after 0, 0.5, 1, 1.5, 2 and 3 hours. Glucose and xylitol concentrations of the samples were measured by HPLC. Cell layer integrity was confirmed by TEER measurements (Millicell ERS-2 Voltometer) at each sampling time point.

[2] = system: glucose transport across the Caco-2 cell monolayer; assay: Glucose transport assay in Caco-2 trans-well model (Example 1); format: cell-based; conditions: Homo sapiens, 13.5 g/L glucose apical, phloretin 100 mg/L, read-out: Glucose transport compared to untreated control [% of control]
Protocol: Caco-2 cells were seeded on 0.4 μm trans-well inserts for monolayer formation and fast differentiation. On day 5, glucose transport across the cell monolayer was performed. Therefore, cell culture medium containing 13.5 g/L glucose and 1 g/L xylitol with or without the indicated dilutions of extracts or phloretin (100 mg/L) was placed as donor solution onto the apical compartment. Samples were collected from the basolateral compartment (HEPES buffer) after 0, 0.5, 1, 1.5, and 2 hours. Glucose concentrations of the samples were measured by HPLC.
Caco-2 cells were seeded on 0.4 1.tm trans-well inserts for monolayer formation and fast differentiation (enterocyte differentiation medium). On day 5, glucose transport across the cell monolayer was performed. Therefore, cell culture medium containing 13.5 g/L glucose and 1 g/L xylitol with or without the indicated concentrations of rubusoside plant extract or phloretin was placed as donor solution onto the apical compartment. Samples were collected from the basolateral compartment (HEPES buffer) after 0, 0.5, 1, 1.5, and 2 hours. Glucose and xylitol concentrations of the samples were measured by HPLC. Cell layer integrity was confirmed by TEER measurements (Millicell ERS-2 Voltometer) at each sampling time point.

[3] = system: glucose transport across the Caco-2 cell monolayer; assay: Glucose transport assay in Caco-2 trans-well model (Example 2); format: cell-based, Human; conditions: 0-3 h, result in words
Protocol: Caco-2 cells were seeded on 0.4 μm trans-well inserts for monolayer formation and fast differentiation. On day 5, glucose transport across the cell monolayer was performed. […] Samples were collected from the basolateral compartment (HEPES buffer) after 0, 0.5, 1, 1.5, 2 and 3 hours. Glucose concentrations of the samples were measured by HPLC. […] Error bars are based on the standard error of the mean (n=2). *p<0.05 indicates a significant difference from the control (two-way ANOVA, Tukey's multiple comparison test).
Caco-2 (165,000 cells/insert) cells were seeded on 0.4 μm trans-well inserts for monolayer formation and fast differentiation (enterocyte differentiation medium). On day 5, glucose transport across the cell monolayer was performed. […] Samples were collected from the basolateral compartment (HEPES buffer) after 0, 0.5, 1, 1.5, 2 and 3 hours. Glucose and xylitol concentrations of the samples were measured by HPLC. Cell layer integrity was confirmed by TEER measurements (Millicell ERS-2 Voltometer) at each sampling time point.

Compound: thaumatin
- times sweeter than sucrose [1]: about 2000 times

Compound: O=C(CCc1ccc(O)cc1)c1c(O)cc(O)cc1O [Phloretin, phloretin]
- xylitol permeability of treated cell layers (Caco-2 cell layers): highest
- activity at 100 µg/mL ([2]; 0.5 h): 36%
- activity at 100 µg/mL ([2]; 1.0 h): 54%
- inhibitory effect on glucose transport [3]: strongly reduced glucose absorption

Compound: OC[C@H]1O[C@H](O[C@]2(CCl)O[C@H](CCl)[C@@H](O)[C@@H]2O)[C@H](O)[C@@H](O)[C@H]1Cl [sucralose]
- times sweeter than sucrose [1]: about 600 times

Compound: O=S(=O)([O-])NC1CCCCC1.[Na+] [sodium cyclamate]
- times sweeter than sucrose [1]: about 30 times
